Mortality and pest or weed control data for 21 molecules are collected here from patent US9783532B2, “Molecules having certain pesticidal utilities, and intermediates, compositions, and processes related thereto” (Dow AgroSciences LLC, priority 2013, dated 2017).

The subject of test [1] is Beet Armyworm (Spodoptera exigua) ("BAW"). The test can be described thus: Bioassay on beet armyworm (BAW), 128-well diet tray assay. To be noted: for mortality at 50 µg/cm2: 168 h, 50 μg/cm^2 on artificial diet, second instar BAW larvae, 25° C., five to seven days, average of eight wells, read-out: BAW % Control (or Mortality) rating; for pest or weed control at 50 µg/cm2: activity rating class, read-out: BAW (Biological Results, Insect species). The class given is in vivo. On the procedure: (§1) Certain molecules disclosed in this document were tested against BAW and CEW using procedures described in the following examples. In the reporting of the results, the “BAW & CL Rating Table” was used (See Table Section). BIOASSAYS ON BAW
Bioassays on BAW were conducted using a 128-well diet tray assay. one to five second instar BAW larvae were placed in each well (3 mL) of the diet tray that had been previously filled with 1 mL of artificial diet to which 50 μg/cm^2 of the test compound (dissolved in 50 μL of 90:10 acetone-water mixture) had been applied (to each of eight wells) and then allowed to dry. Trays were covered with a clear self-adhesive cover and held at 25° C., 14:10 light-dark for five to seven days. Percent mortality was recorded for the larvae in each well; activity in the eight wells was then averaged. The results are indicated in the table entitled “Table ABC: Biological Results” (See Table Section).

The subject of test [2] is Cabbage Looper (Trichoplusia ni) ("CL"). The test can be described thus: Bioassay on cabbage looper (CL), 128-well diet tray assay. The class given is in vivo. To be noted: for mortality at 50 µg/cm2: 168 h, 50 μg/cm^2 on artificial diet, second instar CL larvae, 25° C., five to seven days, average of eight wells, read-out: CL % Control (or Mortality) rating; for pest or weed control at 50 µg/cm2: activity rating class, read-out: CL (Biological Results, Insect species). On the procedure: as §1
Bioassays on CL were conducted using a 128-well diet tray assay. one to five second instar CL larvae were placed in each well (3 mL) of the diet tray that had been previously filled with 1 mL of artificial diet to which 50 μg/cm^2 of the test compound (dissolved in 50 μL of 90:10 acetone-water mixture) had been applied (to each of eight wells) and then allowed to dry. Trays were covered with a clear self-adhesive cover and held at 25° C., 14:10 light-dark for five to seven days. Percent mortality was recorded for the larvae in each well; activity in the eight wells was then averaged. The results are indicated in the table entitled “Table ABC: Biological Results” (See Table Section).

SMILES strings stand for the structures. Where two headings read alike, the source gives them in different places.

Consider `CC(Cc1ccc(-c2ncn(-c3ccc(OC(F)(F)F)cc3)n2)cc1)NC(=O)NC(=S)Nc1ccccc1C(C)C` (stereo not shown) [F4, N-[2-(propan-2-yl)phenyl]-N′-[1-(4-{1-[4-(trifluoromethoxy)phenyl]-1H-1,2,4-triazol-3-yl}phenyl)propan-2-yl]dicarbonimidothioic diamide], for which the mortality at 50 µg/cm2 in test [1] and in test [2] was 50 to 100% each time.

In the case of `CC(C)c1ccccc1NC(=S)NC(=O)NCc1ccc(-c2ncn(-c3ccc(OC(F)(F)C(F)(F)F)cc3)n2)cc1` [F15, N-(4-{1-[4-(pentafluoroethoxy)phenyl]-1H-1,2,4-triazol-3-yl}benzyl)-N′-[2-(propan-2-yl)phenyl]dicarbonimidothioic diamide], the mortality at 50 µg/cm2 in test [1] and in test [2] was 50 to 100% in each case.

Consider `Cc1ccc(C(C)C)c(NC(=S)NC(=O)NCc2ccc(-c3ncn(-c4ccc(OC(F)(F)C(F)(F)F)cc4)n3)cc2)c1` [F16], for which the mortality at 50 µg/cm2 in test [1] and in test [2] was 50 to 100% in each case.

For the molecule `CC(C)c1ccccc1N1C(=O)CS/C1=N\C(=O)NCc1ccc(-c2ncn(-c3ccc(OC(F)(F)F)cc3)n2)cc1` [F17, (Z)-1-(3-(2-isopropylphenyl)-4-oxothiazolidin-2-ylidene)-3-(4-(1-(4-(trifluoromethoxy)phenyl)-1H-1,2,4-triazol-3-yl)benzyl)urea], the mortality at 50 µg/cm2 in test [1] and in test [2] was 50 to 100% each time.

On to `CC(C)c1ccccc1N1C(=O)CS/C1=N\C(=O)NCc1ccc(-c2ncn(-c3ccc(OC(F)(F)C(F)(F)F)cc3)n2)cc1` [F18, (Z)-1-(3-(2-isopropylphenyl)-4-oxothiazolidin-2-ylidene)-3-(4-(1-(4-(perfluoroethoxy)phenyl)-1H-1,2,4-triazol-3-yl)benzyl)urea], for which the mortality at 50 µg/cm2 in test [1] and in test [2] was 50 to 100% throughout.

With `Cc1ccc(C(C)C)c(N2C(=O)CS/C2=N\C(=O)NCc2ccc(-c3ncn(-c4ccc(OC(F)(F)C(F)(F)F)cc4)n3)cc2)c1` [F19, (Z)-1-(3-(2-isopropyl-5-methylphenyl)-4-oxothiazolidin-2-ylidene)-3-(4-(1-(4-(perfluoroethoxy)phenyl)-1H-1,2,4-triazol-3-yl)benzyl)urea], the mortality at 50 µg/cm2 in test [1] and in test [2] was 50 to 100% in each case.

For `COc1ccc(NC(=S)NC(=O)NC2CC2c2ccc(-c3ncn(-c4ccc(OC(F)(F)F)cc4)n3)cc2)c(C)c1` (stereo not shown) [F26], the mortality at 50 µg/cm2 in test [1] and in test [2] was 50 to 100% throughout.

In the case of `Cc1ccc(C(C)C)c(NC(=S)NC(=O)NCc2ccc(-c3ncn(-c4ccc(OC(F)(F)F)cc4)n3)cc2)c1` [F35], the mortality (usually the percentage killed) at 50 µg/cm2 in test [1] was in the range of 50 to 100%.

Take `Cc1ccc(C(C)C)c(NC(=S)NC(=O)NCCc2ccc(-c3ncn(-c4ccc(OC(F)(F)F)cc4)n3)cc2C)c1` [FB1, 1-[(2-isopropyl-5-methyl-phenyl)carbamothioyl]-3-[2-[2-methyl-4-[1-[4-(trifluoromethoxy)phenyl]-1H-1,2,4-triazol-3-yl]phenyl]ethyl]urea]: the pest or weed control at 50 µg/cm2 in test [1] (Table ABC (FB)) and in test [2] (Table ABC (FB)) was 50 to 100% throughout.

Consider `COc1ccc(C(C)C)c(NC(=S)NC(=O)NCCc2ccc(-c3ncn(-c4ccc(OC(F)(F)F)cc4)n3)cc2C)c1` [FB2], for which the pest or weed control at 50 µg/cm2 in test [1] (Table ABC (FB)) and in test [2] (Table ABC (FB)) was 50 to 100% throughout.

Turning to `Cc1ccc(C(C)C)c(N2C(=O)CS/C2=N\C(=O)NCCc2ccc(-c3ncn(-c4ccc(OC(F)(F)F)cc4)n3)cc2C)c1` [FB3, (Z)-1-(3-(2-isopropyl-5-methylphenyl)-4-oxothiazolidin-2-ylidene)-3-(2-methyl-4-(1-(4-(trifluoromethoxy)phenyl)-1H-1,2,4-triazol-3-yl)phenethyl)urea], the pest or weed control at 50 µg/cm2 in test [1] (Table ABC (FB)) and in test [2] (Table ABC (FB)) was 50 to 100% in each case.

In the case of `Cc1ccc(NC(=S)NC(=O)NCCCCc2ccc(-c3ncn(-c4ccc(OC(F)(F)F)cc4)n3)cc2)c(C)c1` [FB16, 1-[(2,4-dimethylphenyl)carbamothioyl]-3-[4-[4-[1-[4-(trifluoromethoxy)phenyl]-1H-1,2,4-triazol-3-yl]phenyl]butyl]urea], in test [2] (Table ABC (FB)), the pest or weed control at 50 µg/cm2 lay within 50 to 100%.

As to `Cc1ccc(-n2c(C)cs/c2=N\C(=O)NCc2ccc(-c3ncn(-c4ccc(OC(F)(F)F)cc4)n3)cc2)c(C(C)C)c1` [P20, (Z)-1-(3-(2-isopropyl-4-methylphenyl)-4-methylthiazol-2(3H)-ylidene)-3-(4-(1-(4-(trifluoromethoxy)phenyl)-1H-1,2,4-triazol-3-yl)benzyl)urea], in test [2], the mortality at 50 µg/cm2 is 50 to 100%.

As for `Cc1ccc(C(C)C)c(N2C(=O)CS/C2=N\C(=O)NCCc2cccc(-c3ncn(-c4ccc(OC(F)(F)F)cc4)n3)c2)c1` [P81], the mortality at 50 µg/cm2 in test [2] lay in the range of 50 to 100%.

`COc1ccc(NC(=S)NC(=O)NCCc2cccc(-c3ncn(-c4ccc(OC(F)(F)F)cc4)n3)c2)c(C)c1` [PC87, 1-[(4-methoxy-2-methyl-phenyl)carbamothioyl]-3-[2-[3-[1-[4-(trifluoromethoxy)phenyl]-1H-1,2,4-triazol-3-yl]phenyl]ethyl]urea]: in test [2] (Table ABC (PC)), the pest or weed control at 50 µg/cm2 lay in the range of 50 to 100%.

Take `CCCc1ccc(C)cc1NC(=S)NC(=O)NCCCc1ccc(-c2ncn(-c3ccc(OC(F)(F)F)cc3)n2)cc1` [PC99, 1-[(5-methyl-2-propyl-phenyl)carbamothioyl]-3-[3-[4-[1-[4-(trifluoromethoxy)phenyl]-1H-1,2,4-triazol-3-yl]phenyl]propyl]urea]: the pest or weed control at 50 µg/cm2 in test [1] (Table ABC (PC)) was in the range of 50 to 100%.

Turning to `Cc1ccc(NC(=S)NC(=O)NCCCc2ccc(-c3ncn(-c4ccc(OC(F)(F)F)cc4)n3)cc2)c(C(C)C)c1` [PC102, 1-[(2-isopropyl-4-methyl-phenyl)carbamothioyl]-3-[3-[4-[1-[4-(trifluoromethoxy)phenyl]-1H-1,2,4-triazol-3-yl]phenyl]propyl]urea], in test [1] (Table ABC (PC)), the pest or weed control at 50 µg/cm2 lay in the range of 50 to 100%.

Take `CC(C)c1cc(F)ccc1NC(=S)NC(=O)NCCCc1ccc(-c2ncn(-c3ccc(OC(F)(F)F)cc3)n2)cc1` [PC103, 1-[(4-fluoro-2-isopropyl-phenyl)carbamothioyl]-3-[3-[4-[1-[4-(trifluoromethoxy)phenyl]-1H-1,2,4-triazol-3-yl]phenyl]propyl]urea]: the pest or weed control at 50 µg/cm2 in test [1] (Table ABC (PC)) lay within 0 to 50%.

Consider `Cc1ccc(NC(=S)NC(=O)NCCCCc2cccc(-c3ncn(-c4ccc(OC(F)(F)F)cc4)n3)c2)c(C(C)C)c1` [PC180, 1-[(2-isopropyl-4-methyl-phenyl)carbamothioyl]-3-[4-[3-[1-[4-(trifluoromethoxy)phenyl]-1H-1,2,4-triazol-3-yl]phenyl]butyl]urea], for which the pest or weed control at 50 µg/cm2 in test [1] (Table ABC (PC)) lay in the range of 0 to 50%.

Turning to `CC(C)c1cc(F)ccc1NC(=S)NC(=O)NCCCCc1cccc(-c2ncn(-c3ccc(OC(F)(F)F)cc3)n2)c1` [PC181, 1-[(4-fluoro-2-isopropyl-phenyl)carbamothioyl]-3-[4-[3-[1-[4-(trifluoromethoxy)phenyl]-1H-1,2,4-triazol-3-yl]phenyl]butyl]urea], the pest or weed control at 50 µg/cm2 in test [1] (Table ABC (PC)) lay in the range of 0 to 50%.

`COc1ccc(C(C)C)c(NC(=S)NC(=O)NCCCCc2cccc(-c3ncn(-c4ccc(OC(F)(F)F)cc4)n3)c2)c1` [PC182, 1-[(2-isopropyl-5-methoxy-phenyl)carbamothioyl]-3-[4-[3-[1-[4-(trifluoromethoxy)phenyl]-1H-1,2,4-triazol-3-yl]phenyl]butyl]urea]: in test [2] (Table ABC (PC)), the pest or weed control at 50 µg/cm2 lay in the range of 50 to 100%.
